Among the data in patent publication US11548868B2, “Heterocyclic compounds, compositions comprising heterocyclic compound, and methods of use thereof” (JS INNOPHARM (SHANGHAI) LTD, priority 2017, dated 2023) are IC50 values, retold here.

Assay [1] addresses T1, TDO2 in A172 cancer cells (Homo sapiens, UniProt P48775).
T1 construct: endogenous in cells; host or cells: A172 cancer cells
Briefly: TDO2 Cellular Assay (kynurenine production in A172 cancer cells). The format is cell-based. The conditions noted are these: L-Trp 1 mM, 24 hours incubation, kynurenine at 490 nm. The gist of the method: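 Kynurenine output of A172 cells was read colorimetrically at 490 nm (Ehrlich reagent after TCA hydrolysis at 50 °C). Cells had 1 mM L-Trp plus compound at 0–25 μM in 0.25% DMSO for 24 h; IC50 values were fitted non-linearly from percent inhibition relative to vehicle.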

The target in assay [2] is T2, IDO1 in Hela cancer cells (Homo sapiens, UniProt P14902).
T2 construct: endogenous in cells; host or cells: Hela cancer cells stimulated with human IFN-γ
T2 sequence (P14902 whole entry): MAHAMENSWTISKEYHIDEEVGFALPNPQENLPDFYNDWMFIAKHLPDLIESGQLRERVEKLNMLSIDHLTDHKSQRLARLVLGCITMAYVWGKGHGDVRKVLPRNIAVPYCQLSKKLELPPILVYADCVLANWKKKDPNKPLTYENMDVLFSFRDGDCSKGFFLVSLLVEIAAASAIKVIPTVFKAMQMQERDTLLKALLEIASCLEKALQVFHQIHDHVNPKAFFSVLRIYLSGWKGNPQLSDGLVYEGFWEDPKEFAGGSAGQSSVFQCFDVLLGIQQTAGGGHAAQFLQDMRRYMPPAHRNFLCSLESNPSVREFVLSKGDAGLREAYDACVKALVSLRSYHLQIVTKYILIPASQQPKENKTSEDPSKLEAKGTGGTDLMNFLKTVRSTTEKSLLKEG
Briefly: IDO1 Cellular Assay (kynurenine production in IFN-γ stimulated Hela cancer cells). The format is cell-based. Particulars: human IFN-γ 50 ng/mL, 48 hours incubation, kynurenine at 490 nm. As for the experimental part: Hela cancer cells (5×10^3 per well) with 85 μL DMEM medium containing 10% FBS were seeded in a 96-well plate and incubated at 95% humidity and 5% CO2 at 37° C. for 24 hours. human IFN-γ (10 μL, 50 ng/mL final concentration) and 5 μL serial dilutions of the test compounds were added into each well. The test compounds were dissolved in DMSO, and successively diluted with pH7.5 buffer (with final DMSO concentration of 0.25%) resulting in final concentrations of the test compounds ranging from 0 to 25 μM (0, 2.5, 7.5, 25, 75, 250, 750, 2500, 7500, & 25000 nM). After 48 hours of incubation, 70 uL of the supernatant per well was transferred to a new 96 well plate. Trichloroacetic acid (6.1 N, 8 μL) was mixed into each well and incubated at 50° C. for 30 min to hydrolyze N-formylkynurenine produced by IDO to kynurenine. The reaction mixture was then centrifuged for 10 min at 2500 RPM to remove sediments. 50 μL of the supernatant per well was transferred to another 96 well plate and mixed with 50 uL of 2% (w/v) p-dimethylaminobenzaldehyde in acetic acid. The yellow color derived from kynurenine was measured at 490 nm using a microplate reader. Percent inhibition of the test compounds was determined by measuring the decrease in kynurenine as compared to the control of DMSO vehicle, which was calculated by formula of (WC-WT)/WC, where WC is the mean absorbance of the control well minus blank well; WT is the mean absorbance of the test well minus the blank well. Data was analyzed by GraphPad Prism 5 and the IC50 values were obtained by non-linear regression.
The IC50 values of for Compounds disclosed are listed in Table 2, A′: ≤0.5 μM; B′: >0.5 μM and ≤1 μM; C′: >1.0 μM and ≤5 uM; and D′: >5 μM.

T1 sequence (P48775 whole entry): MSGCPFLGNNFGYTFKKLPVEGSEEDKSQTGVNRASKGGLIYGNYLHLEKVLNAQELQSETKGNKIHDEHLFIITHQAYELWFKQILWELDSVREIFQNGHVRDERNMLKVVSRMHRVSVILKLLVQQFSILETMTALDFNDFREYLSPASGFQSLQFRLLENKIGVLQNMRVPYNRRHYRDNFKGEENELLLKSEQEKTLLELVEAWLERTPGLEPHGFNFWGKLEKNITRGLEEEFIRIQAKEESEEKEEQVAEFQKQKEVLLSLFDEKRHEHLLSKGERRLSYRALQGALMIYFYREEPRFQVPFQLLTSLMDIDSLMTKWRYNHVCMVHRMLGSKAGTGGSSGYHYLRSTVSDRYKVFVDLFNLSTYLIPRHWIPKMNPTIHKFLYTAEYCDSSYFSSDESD

A word on the IC50: it is the point on the concentration scale where inhibition reaches its midpoint. As to `CS(=O)(=O)N1C[C@@H]2C[C@@](O)(c3cc(Cl)cc4cn[nH]c34)C[C@@H]2C1` [Example 96, (3aR,5r,6aS)-5-(5-chloro-1H-indazol-7-yl)-2-(methylsulfonyl)octahydrocyclopenta[c]pyrrol-5-ol], the IC50 in assay [1] and in assay [2] was 1 to 5 µM each time.

Take `O=C(C1CCOCC1)N1C[C@@H]2C[C@@](O)(c3cc(Cl)cc4cn[nH]c34)C[C@@H]2C1` [Example 97, ((3aR,5r,6aS)-5-(5-chloro-1H-indazol-7-yl)-5-hydroxyhexahydrocyclopenta[c]pyrrol-2(1H)-yl)(tetrahydro-2H-pyran-4-yl)methanone]: the IC50 in assay [1] and in assay [2] was more than 5 µM each time.

Turning to `O=C(c1ccccc1)N1C[C@@H]2C[C@@](O)(c3cc(Cl)cc4cn[nH]c34)C[C@@H]2C1` [Example 98, ((3aR,5r,6aS)-5-(5-chloro-1H-indazol-7-yl)-5-hydroxyhexahydrocyclopenta[c]pyrrol-2(1H)-yl)(phenyl)methanone], the IC50 in assay [1] and in assay [2] was more than 5 µM each time.

For `O=C(C1CC1)N1C[C@@H]2C[C@@](O)(c3cc(Cl)cc4cn[nH]c34)C[C@@H]2C1` [Example 99, ((3aR,5r,6aS)-5-(5-chloro-1H-indazol-7-yl)-5-hydroxyhexahydrocyclopenta[c]pyrrol-2(1H)-yl)(cyclopropyl)methanone], the values for the IC50 in assay [1] and in assay [2] were 1 to 5 µM and more than 5 µM, respectively.

For the compound `O=S(=O)(C1CC1)N1C[C@@H]2C[C@@](O)(c3cc(Cl)cc4cn[nH]c34)C[C@@H]2C1` [Example 100, (3aR,5r,6aS)-5-(5-chloro-1H-indazol-7-yl)-2-(cyclopropylsulfonyl)octahydrocyclopenta[c]pyrrol-5-ol], the IC50 in assay [1] is 1 to 5 µM; in assay [2] it was more than 5 µM.

`O=S(=O)(C1CCOCC1)N1C[C@@H]2C[C@@](O)(c3cc(Cl)cc4cn[nH]c34)C[C@@H]2C1` [Example 101, (3aR,5r,6aS)-5-(5-chloro-1H-indazol-7-yl)-2-((tetrahydro-2H-pyran-4-yl)sulfonyl)octahydrocyclopenta[c]pyrrol-5-ol]: the results for the half-inhibitory concentration (IC50) in assay [1] and in assay [2] were 1 to 5 µM and more than 5 µM, respectively.

As for `O=S(=O)(c1ccccc1)N1C[C@@H]2C[C@@](O)(c3cc(Cl)cc4cn[nH]c34)C[C@@H]2C1` [Example 102, (3aR,5r,6aS)-5-(5-chloro-1H-indazol-7-yl)-2-(phenylsulfonyl)octahydrocyclopenta[c]pyrrol-5-ol], the IC50 in assay [1] and in assay [2] was more than 5 µM throughout.

Consider `CC(=O)N1C[C@H]2CC(C(O)c3cc(Cl)cc4[nH]ncc34)C[C@H]2C1` (stereo partly drawn) [Example 104, 1-((3aR,6aS)-5-((6-chloro-1H-indazol-4-yl)(hydroxy)methyl)hexahydrocyclopenta[c]pyrrol-2(1H)-yl)ethanone], for which the IC50 in assay [1] is 0.5 to 1 µM; in assay [2], more than 5 µM.

As for `CS(=O)(=O)N1C[C@H]2CC(C(O)c3cc(Cl)cc4[nH]ncc34)C[C@H]2C1` (stereo partly drawn) [Example 105, (6-chloro-1H-indazol-4-yl)((3aR,6aS)-2-(methylsulfonyl)octahydrocyclopenta[c]pyrrol-5-yl)methanol], the IC50 in assay [1] was not above 0.5 µM; in assay [2], more than 5 µM.

With `O[C@@H]1C[C@@H]2C[C@@](O)(c3cc(Cl)cc4cn[nH]c34)C[C@@H]2C1` [Example 106, (2r,3aR,5s,6aS)-2-(5-chloro-1H-indazol-7-yl)octahydropentalene-2,5-diol], the figures for the IC50 in assay [1] and in assay [2] were 0.5 to 1 µM and more than 5 µM, respectively.

As to `O=C(N[C@H]1[C@@H]2C[C@@](O)(c3cc(Cl)cc4cn[nH]c34)C[C@@H]21)C1CC1` [Example 107, N-((1R,3r,5S,6r)-3-(5-chloro-1H-indazol-7-yl)-3-hydroxybicyclo[3.1.0]hexan-6-yl)cyclopropanecarboxamide], the IC50 in assay [1] was not above 0.5 µM; in assay [2], more than 5 µM.

Take `CC(=O)N[C@H]1[C@@H]2C[C@@](O)(c3cc(Cl)cc4cn[nH]c34)C[C@@H]21` [Example 108, N-((1R,3r,5S,6r)-3-(5-chloro-1H-indazol-7-yl)-3-hydroxybicyclo[3.1.0]hexan-6-yl)acetamide]: the IC50 in assay [1] is not above 0.5 µM; in assay [2], more than 5 µM.

Turning to `CS(=O)(=O)N[C@H]1[C@@H]2C[C@@](O)(c3cc(Cl)cc4cn[nH]c34)C[C@@H]21` [Example 109, N-((1R,3r,5S,6r)-3-(5-chloro-1H-indazol-7-yl)-3-hydroxybicyclo[3.1.0]hexan-6-yl)methanesulfonamide], the IC50 in assay [1] lay in the range of 0.5 to 1 µM; in assay [2], 1 to 5 µM.

`O=S(=O)(N[C@H]1[C@@H]2C[C@@](O)(c3cc(Cl)cc4cn[nH]c34)C[C@@H]21)C1CC1` [Example 110, N-((1R,3r,5S,6r)-3-(5-chloro-1H-indazol-7-yl)-3-hydroxybicyclo[3.1.0]hexan-6-yl)cyclopropanesulfonamide]: the IC50 in assay [1] and in assay [2] was 1 to 5 µM each time.

For `OCC1[C@H]2C[C@](O)(c3cc(Cl)cc4[nH]ncc34)C[C@@H]12` (stereo partly drawn) [Example 111, (1R,3r,5S)-3-(6-chloro-1H-indazol-4-yl)-6-(hydroxymethyl)bicyclo[3.1.0]hexan-3-ol], the IC50 in assay [1] was not above 0.5 µM; in assay [2] it was 1 to 5 µM.

As for `CC(=O)N1C[C@H]2CC(C(O)c3cc(Cl)cc4cn[nH]c34)C[C@H]2C1` (stereo partly drawn) [Example 112, 1-((3aR,6aS)-5-((5-chloro-1H-indazol-7-yl)(hydroxy)methyl)hexahydrocyclopenta[c]pyrrol-2(1H)-yl)ethanone], the IC50 in assay [1] is more than 5 µM; in assay [2] it was 0.5 to 1 µM.

As to `CS(=O)(=O)N1C[C@H]2CC(C(O)c3cc(Cl)cc4cn[nH]c34)C[C@H]2C1` (stereo partly drawn) [Example 113, (5-chloro-1H-indazol-7-yl)((3aR,6aS)-2-(methylsulfonyl)octahydrocyclopenta[c]pyrrol-5-yl)methanol], the IC50 in assay [1] and in assay [2] was 1 to 5 µM throughout.

With `CNC(=O)N[C@H]1[C@@H]2C[C@@](O)(c3cc(Cl)cc4[nH]ncc34)C[C@@H]21` [Example 114, 1-((1R,3r,5S,6r)-3-(6-chloro-1H-indazol-4-yl)-3-hydroxybicyclo[3.1.0]hexan-6-yl)-3-methylurea], the figures for the IC50 in assay [1] and in assay [2] were not above 0.5 µM and more than 5 µM, respectively.

For the compound `O=C(Nc1ccccc1)N[C@H]1[C@@H]2C[C@@](O)(c3cc(Cl)cc4[nH]ncc34)C[C@@H]21` [Example 115, 1-((1R,3r,5S,6r)-3-(6-chloro-1H-indazol-4-yl)-3-hydroxybicyclo[3.1.0]hexan-6-yl)-3-phenylurea], the IC50 in assay [1] is not above 0.5 µM; in assay [2], 1 to 5 µM.

On to `O[C@@]1(c2cc(Cl)cc3[nH]ncc23)C[C@H]2CN(c3ccncc3)C[C@H]2C1` [Example 116, (3aR,5r,6aS)-5-(6-chloro-1H-indazol-4-yl)-2-(pyridin-4-yl)octahydrocyclopenta[c]pyrrol-5-ol], for which the IC50 in assay [1] is not above 0.5 µM; in assay [2], more than 5 µM.

On to `O[C@@]1(c2cc(Cl)cc3cn[nH]c23)C[C@H]2CN(c3ccncc3)C[C@H]2C1` [Example 117, (3aR,5r,6aS)-5-(5-chloro-1H-indazol-7-yl)-2-(pyridin-4-yl)octahydrocyclopenta[c]pyrrol-5-ol], for which the IC50 in assay [1] and in assay [2] was more than 5 µM in each case.

On to `O[C@@]1(c2cc(Cl)cc3cn[nH]c23)C[C@H]2C[C@H]2C1` [Example 118, (1R,3r,5S)-3-(5-chloro-1H-indazol-7-yl)bicyclo[3.1.0]hexan-3-ol], for which the figures for the IC50 in assay [1] and in assay [2] were 1 to 5 µM and more than 5 µM, respectively.

Take `O=C(N[C@H]1[C@@H]2C[C@@](O)(c3cc(Cl)cc4[nH]ncc34)C[C@@H]21)c1ccc(Cl)cc1` [Example 119, 4-chloro-N-((1R,3r,5S,6r)-3-(6-chloro-1H-indazol-4-yl)-3-hydroxybicyclo[3.1.0]hexan-6-yl)benzamide]: the IC50 in assay [1] and in assay [2] was not above 0.5 µM throughout.

As to `O=C(NC1CC1)N[C@H]1[C@@H]2C[C@@](O)(c3cc(Cl)cc4[nH]ncc34)C[C@@H]21` [Example 120, 1-((1R,3r,5S,6r)-3-(6-chloro-1H-indazol-4-yl)-3-hydroxybicyclo[3.1.0]hexan-6-yl)-3-cyclopropylurea], the IC50 was not above 0.5 µM in assay [1] and more than 5 µM in assay [2].
